Test results from ChEMBL document CHEMBL1139562, “A switch in enantiomer preference between mitochondrial F1F0-ATPase chemotypes” (Bioorg Med Chem Lett, 2005).

Assays:
[1] = target: T1, Mitochondrial complex V; ATP synthase (Bos taurus) (UniProt P05632+P00829+P05631+P05630); experiment: Inhibitory activity against mitochondrial ATP hydrolase from bovine; format: protein-complex assay
[2] = target: T1, Mitochondrial complex V; ATP synthase (Bos taurus); experiment: Inhibitory activity against mitochondrial ATP synthase from bovine; format: protein-complex assay
[3] = target: T1, Mitochondrial complex V; ATP synthase (Bos taurus); experiment: Inhibitory activity against mitochondrial ATP synthase from bovine

Inhibition [1]	Inhibition [2]	Inhibition [3]	SMILES
> 100 µM	3600 nM	–	S=C(Nc1ccc(Cl)cc1)O[C@H](Cn1ccnc1)c1ccc(Cl)cc1Cl
–	> 100000 nM	> 100 µM	N#Cc1cccc(C(=O)N/C(=N\[C@@H](Cn2ccnc2)c2ccc(Cl)cc2Cl)Nc2ccc(Cl)cc2)c1
> 100 µM	2200 nM	–	S=C(Nc1ccc(Cl)cc1Cl)O[C@H](Cn1ccnc1)c1ccc(Cl)cc1Cl
> 100 µM	18 nM	–	N#Cc1cccc(C(=O)N/C(=N\[C@H](Cn2ccnc2)c2ccc(Cl)cc2Cl)Nc2ccc(Cl)cc2)c1
> 100 µM	140 nM	–	S=C(Nc1ccc(Cl)cc1)O[C@@H](Cn1ccnc1)c1ccc(Cl)cc1Cl
> 100 µM	19 nM	–	S=C(Nc1ccc(Cl)cc1Cl)O[C@@H](Cn1ccnc1)c1ccc(Cl)cc1Cl
